Test results reported in ChEMBL document CHEMBL1201862, “PubChem BioAssay data set” (2004).
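Tested at 5 concentrations; 48 h exposure; 96-well plates; endpoints linearly interpolated, else capped at highest concentration. GI50 = concentration required for 50% inhibition of growth.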 Activity calls are given as the source filed them. Rule as the data show it: active = GI50 up to about 1.1 µM and inactive = higher.

Columns and labels:
Experiment in all cases: NCI anticancer screen, dose series, 48 h
IGROV-1 = tested on: IGROV-1
HCT-116 = tested on: HCT-116
COLO 205 = tested on: COLO 205
RPMI-8226 = tested on: RPMI-8226
SW-620 = tested on: SW-620
Hs-578T = tested on: Hs-578T
NCI/ADR-RES = tested on: NCI/ADR-RES
EKVX = tested on: EKVX
M14 = tested on: M14
SR = tested on: SR
LOX IMVI = tested on: LOX IMVI
CCRF-CEM = tested on: CCRF-CEM
PC-3 = tested on: PC-3
SK-OV-3 = tested on: SK-OV-3
OVCAR-8 = tested on: OVCAR-8
MDA-MB-231 = tested on: MDA-MB-231
ACHN = tested on: ACHN
HOP-62 = tested on: HOP-62
A549 = tested on: A549
RXF 393 = tested on: RXF 393
UO-31 = tested on: UO-31
K562 = tested on: K562
SK-MEL-5 = tested on: SK-MEL-5
A498 = tested on: A498
SK-MEL-2 = tested on: SK-MEL-2
T47D = tested on: T47D
HT-29 = tested on: HT-29
UACC-62 = tested on: UACC-62
U-251 = tested on: U-251
TK-10 = tested on: TK-10
CAKI-1 = tested on: CAKI-1
DU-145 = tested on: DU-145
SF-295 = tested on: SF-295
SNB-75 = tested on: SNB-75
SN12C = tested on: SN12C
OVCAR-4 = tested on: OVCAR-4
SNB-19 = tested on: SNB-19
SF-539 = tested on: SF-539
HL-60 = tested on: HL-60
NCI-H460 = tested on: NCI-H460
MCF7 = tested on: MCF7
MDA-MB-435 = tested on: MDA-MB-435
HOP-92 = tested on: HOP-92
KM12 = tested on: KM12
HCC 2998 = tested on: HCC 2998
HCT-15 = tested on: HCT-15
SK-MEL-28 = tested on: SK-MEL-28
BT-549 = tested on: BT-549
NCI-H522 = tested on: NCI-H522
Malme-3M = tested on: Malme-3M
NCI-H23 = tested on: NCI-H23
OVCAR-3 = tested on: OVCAR-3
MOLT-4 = tested on: MOLT-4
SF-268 = tested on: SF-268
OVCAR-5 = tested on: OVCAR-5
MDA-N = tested on: MDA-N
786-0 = tested on: 786-0
NCI-H226 = tested on: NCI-H226
UACC-257 = tested on: UACC-257

Measured: GI50

CC1(C)OC(CP(c2ccccc2)c2ccccc2)C(CP(c2ccccc2)c2ccccc2)O1 (stereo not drawn)
inactive: RPMI-8226 1.17 µM | SW-620 1.17 µM | Hs-578T 2.02 µM | NCI/ADR-RES > 100 µM | M14 1.79 µM | SK-OV-3 3.55 µM | MDA-MB-231 1.22 µM | ACHN 2.12 µM | UO-31 1.69 µM | SK-MEL-5 2.13 µM | A498 3.39 µM | SK-MEL-2 1.81 µM | UACC-62 1.97 µM | TK-10 > 19.8 µM | CAKI-1 2.92 µM | DU-145 2.23 µM | SNB-75 1.36 µM | SN12C 1.32 µM | SF-539 2.1 µM | MDA-MB-435 2.16 µM | HOP-92 2.36 µM | SK-MEL-28 > 28.2 µM | BT-549 2.93 µM | Malme-3M 1.99 µM | SF-268 3.81 µM | OVCAR-5 2.25 µM | MDA-N 1.52 µM | 786-0 1.83 µM
3.22 µM: HCT-15
active: IGROV-1 0.222 µM | HCT-116 0.165 µM | COLO 205 0.0792 µM | EKVX 0.914 µM | SR 0.552 µM | LOX IMVI 0.224 µM | CCRF-CEM 0.794 µM | PC-3 0.0548 µM | OVCAR-8 0.741 µM | HOP-62 0.418 µM | A549 0.27 µM | RXF 393 0.857 µM | K562 0.372 µM | T47D 0.345 µM | HT-29 0.656 µM | U-251 0.191 µM | SF-295 0.544 µM | OVCAR-4 0.986 µM | SNB-19 0.601 µM | HL-60 0.0443 µM | NCI-H460 0.417 µM | MCF7 0.0869 µM | KM12 0.617 µM | HCC 2998 0.774 µM | NCI-H522 0.298 µM | NCI-H23 0.485 µM | OVCAR-3 0.0535 µM | MOLT-4 0.254 µM

Cc1csc(CP(=O)(OC(C)C)OC(C)C)n1
inactive: IGROV-1 > 100 µM | HCT-116 > 100 µM | COLO 205 > 100 µM | RPMI-8226 > 100 µM | SW-620 > 100 µM | Hs-578T > 100 µM | NCI/ADR-RES > 100 µM | EKVX > 100 µM | M14 > 100 µM | SR > 100 µM | LOX IMVI > 100 µM | PC-3 > 100 µM | SK-OV-3 > 100 µM | OVCAR-8 > 100 µM | NCI-H226 > 100 µM | MDA-MB-231 > 100 µM | ACHN > 100 µM | HOP-62 > 100 µM | A549 > 100 µM | RXF 393 > 100 µM | UO-31 74 µM | K562 > 100 µM | SK-MEL-5 > 100 µM | A498 > 100 µM | SK-MEL-2 > 100 µM | T47D > 100 µM | HT-29 > 100 µM | U-251 > 100 µM | TK-10 > 100 µM | CAKI-1 > 100 µM | DU-145 > 100 µM | SF-295 > 100 µM | SNB-75 > 100 µM | SN12C > 100 µM | OVCAR-4 > 100 µM | SNB-19 > 100 µM | SF-539 > 100 µM | HL-60 > 100 µM | NCI-H460 > 100 µM | MCF7 > 100 µM | MDA-MB-435 > 100 µM | HOP-92 > 100 µM | HCC 2998 > 100 µM | SK-MEL-28 > 100 µM | BT-549 > 100 µM | NCI-H522 > 100 µM | Malme-3M > 100 µM | NCI-H23 > 100 µM | OVCAR-3 > 100 µM | MOLT-4 > 100 µM | SF-268 > 100 µM | OVCAR-5 > 100 µM | MDA-N > 100 µM | UACC-257 > 100 µM | 786-0 > 100 µM
> 100 µM: HCT-15
